Source: patent US11096917B2, “Composition for preventing or treating muscle diseases, comprising suberic acid or pharmaceutically acceptable salt thereof as active ingredient” (INDUSTRY-ACADEMIC COOPERATION FOUNDATION, YONSEI UNIVERSITY, priority 2017, dated 2021)

How the values were obtained:
p-4E-BP1 = experiment: Western blotting of p-4E-BP1 in dexamethasone-treated myotubes; assay type: cell-based, mouse; conditions: 100 μM suberic acid + 50 μM dexamethasone, 2 days, vs dexamethasone alone; FIG. 2A
Description: (§1) A mouse myoblast cell line (C2C12 cells) was purchased from the American Type Culture Collection (ATCC, Manassas, Va., USA), and the purchased cells were cultured at 37° C. in a 5% CO2 incubator using a 10% fetal bovine serum medium (Gibco-BRL). When the cultured cells reached 80% confluence, the cells were differentiated into myotubes using a 2% horse serum medium (Gibco-BRL).
(§2) From the fourth day of differentiation, the cells were treated with 50 μM dexamethasone (dexa; Sigma) and 100 μM suberic acid (CAS Number 505-48-6, Sigma) for 2 days.
(§3) The cells were treated with 50 μM dexamethasone (dexa; Sigma) in the same manner as in Example 1.
(§4) To perform Western blotting in the cells, 500 μL of a lysis buffer, which included 100 mM Tris-HCl (pH 7.4), 5 mM EDTA, 50 mM sodium pyrophosphate, 50 mM NaF, 100 mM orthovanadate, 1% Triton X-100, 1 mM phenylmethanesulfonyl fluoride, 2 μg/mL aprotinin, 1 μg/mL pepstatin A, and 1 μg/mL leupeptin, was added to each well from which a medium was removed, and the cell suspension was harvested, and then centrifuged at 4° C. and 1,300×g for 20 minutes. Thereafter, the middle layer was taken, and proteins were quantified according to the Bradford method (Bio-Rad). […] The bands visualized on the X-ray film were scanned, and then quantified using Quantity One analysis software (Bio-Rad).

C57BL/6N mice [1] = experiment: Grip strength test in high-fat diet-induced muscle loss mice; assay type: in vivo, mouse; conditions: 0.2% suberic acid in high fat diet, 10 weeks, force (N) per weight (kg), vs high-fat diet mice; FIG. 3 (B)
Source text: (§5) Twenty-four 5-week-old male C57BL/6N mice (Mating, Korea) were adapted to laboratory circumstances for a week while feeding a commercially available normal diet (rodent chow), and then assigned into three groups (a Chow group, a HFD group, and a suberic acid-treated group; n=8 mice per group) according to a randomized block design, and bred for 10 weeks. An obesity-inducing diet used in this experiment was a high fat diet (HFD: 40% fat calories, 17 g of lard+3% corn oil/100 g of diet), and a suberic acid-supplemented high fat diet (Suberic Acid) had the same compositions as the HFD, provided that the suberic acid-supplemented high fat diet included 0.2% suberic acid (Table 2). A normal diet group (Chow) took a commercially available rodent chow. The suberic acid was purchased from Sigma-Aldrich Corp.
To measure grip strength of the mice, at 10 weeks of breeding, the grip strength of the mice was measured using four limbs. A force (N) generated by a mouse gripping a wire grid was measured a total of five times using a grip strength meter (Daejong Instrument Industry Co., Ltd., Korea) equipped with a wire grid (20×10 cm), and an at least one-minute break between every measurement was provided. The experimental results were calculated by dividing the measured force (N) by the weight (kg) of the mouse. […]

[2] = system: mouse myoblast cell line (C2C12 cells); experiment: Giemsa-Wright staining; thickness, length and fusion index of myotubes reduced by dexamethasone; assay type: cell-based; conditions: 100 μM suberic acid + 50 μM dexamethasone, 2 days, vs dexamethasone alone
Description: as §1, §2, §3
The myotubes prepared in Example 1 were washed twice with phosphate-buffered saline (PBS), and then immobilized with 100% methanol for 10 minutes. When the immobilization was completed, the myotubes were air-dried at room temperature for 10 minutes, and then stained for 30 minutes by dropwise addition of a Giemsa-Wright staining solution (ASAN Pharmaceutical Co., Ltd., Seoul) which is used to specifically stain myotubes.
The myotubes thus stained were photographed at 100× and 40× magnifications using a fluorescence microscope (IX 71, Olympus), and then analyzed using Image J software (USA). Six regions in each well were randomly selected and photographed using a microscope. The thicknesses, lengths and fusion indexes of at least 100 myoblast cells in each well were analyzed (in triplicate/group).

MuRF1 = experiment: RT-PCR of MuRF1 gene expression in dexamethasone-treated myotubes; assay type: cell-based, mouse; conditions: 100 μM suberic acid + 50 μM dexamethasone, 2 days, vs dexamethasone alone; FIG. 2B
Description: as §1, §2, §3
(§6) 1×10^7 mouse myoblast cells were added to 334 μL of a TRIzol solution, and pulverized. Thereafter, the resulting cell solution was centrifuged at 4° C. and 12,000× g for 10 minutes. The supernatant was transferred to a new tube, and 67 μL of chloroform was added thereto, and vortexed. The supernatant was again transferred to a new tube, and isopropanol was added so that a ratio of the supernatant and isopropanol was 1:1. […] A concentration of the extracted RNA sample was measured at wavelengths of 260 nm and 280 nm using a UV/VIS spectrophotometer (Beckman coulter, DU730), and the integrity of the RNA sample was determined by means of agarose gel electrophoresis. […]

MaFbx/atrogin-1 = experiment: RT-PCR of MaFbx/atrogin-1 gene expression in dexamethasone-treated myotubes; assay type: cell-based, mouse; conditions: 100 μM suberic acid + 50 μM dexamethasone, 2 days, vs dexamethasone alone; FIG. 2B
Description: as §1, §2, §3, §6

C57BL/6N mice [3] = experiment: H&E staining of muscle tissue, fiber diameter, in high-fat diet mice; assay type: in vivo, mouse; conditions: 0.2% suberic acid in high fat diet, 10 weeks, vs high-fat diet mice
Source text: as §5
A muscle tissue was extracted from a mouse, immobilized with 10% formalin, stained with a Hematoxylin and Eosin (H&E) stain, and then submitted to the Korea CFC (Gyeonggi-do, Korea). […]
The statistical analysis of all data was carried out using a statistical package for the social sciences (SPSS version 21.0, IBM, Armonk, N.Y., USA) PC package. In this case, the analyzed numerical values are expressed as the mean±SEM, and a significant difference between the groups was verified using ANOVA.

p-p70S6K1 = experiment: Western blotting of p-p70S6K1 in dexamethasone-treated myotubes; assay type: cell-based, mouse; conditions: 100 μM suberic acid + 50 μM dexamethasone, 2 days, vs dexamethasone alone; FIG. 2A
Description: as §1, §2, §3, §4

O=C(O)CCCCCCC(=O)O [suberic acid]
amount of p-4E-BP1 protein (p-4E-BP1): significantly increased again | increase in grip strength of the mice (C57BL/6N mice [1]): approximately 21% | increase in thickness (diameter) of the myotubes ([2]; FIG. 1B): 58% | increase in fusion index of the myotubes ([2]; FIG. 1C): 53% | increase in length of the myotubes ([2]; FIG. 1D): 100% | expression of MuRF1 (MuRF1): significantly decreased | expression of MaFbx/atrogin-1 (MaFbx/atrogin-1): significantly decreased | increase in fiber diameter of the rectus femoris (C57BL/6N mice [3]; FIG. 4 (A)): 10% | increase in fiber diameter of the soleus (C57BL/6N mice [3]; FIG. 4 (B)): 15% | amount of p-p70S6K protein (p-p70S6K1): significantly increased again
